Holding throughout (type): in vivo
Data set [1] concerns Cabbage Looper (Trichoplusia ni). In words: Bioassay on Cabbage Looper (CL), 128-well diet tray assay. As to conditions: 50 μg/cm^2 on artificial diet, second instar larvae, five to seven days, 25° C. The method, then: Bioassays on CL were conducted using a 128-well diet tray assay. One to five second instar CL larvae were placed in each well (3 mL) of the diet tray that had been previously filled with 1 mL of artificial diet to which 50 μg/cm^2 of the test molecule (dissolved in 50 μL of 90:10 acetone-water mixture) had been applied (to each of eight wells) and then allowed to dry. Trays were covered with a clear self-adhesive cover and held at 25° C., 14:10 light-dark for five to seven days. Percent mortality was recorded for the larvae in each well; activity in the eight wells was then averaged. The results are indicated in the table entitled “Table ABC: Biological Results” (See Table Section).
(§1) Bioassays on BAW and CL were conducted according to the procedures outlined in Example A: Bioassays on Beet Armyworm (“BAW”) and Cabbage Looper (“CL”) using the indicated concentrations.

Data set [2] relates to Yellow Fever Mosquito (Aedes aegypti). The following applies: 4000 ppm master plate solution diluted, about 1 day-old larvae, scored on mortality after 3 days. How it is done:
Master plates containing 400 μg of a molecule dissolved in 100 μL of dimethyl sulfoxide (DMSO) (equivalent to a 4000 ppm solution) are used. A master plate of assembled molecules contains 15 μL per well. To this plate, 135 μL of a 90:10 water:acetone mixture is added to each well. A robot (Biomek® NXP Laboratory Automation Workstation) is programmed to dispense 15 μL aspirations from the master plate into an empty 96-well shallow plate (“daughter” plate). There are 6 reps (“daughter” plates) created per master. The created daughter plates are then immediately infested with YFM larvae.
The day before plates are to be treated, mosquito eggs are placed in Millipore water containing liver powder to begin hatching (4 g. into 400 mL). After the daughter plates are created using the robot, they are infested with 220 μL of the liver powder/larval mosquito mixture (about 1 day-old larvae). After plates are infested with mosquito larvae, a non-evaporative lid is used to cover the plate to reduce drying. Plates are held at room temperature for 3 days prior to grading. After 3 days, each well is observed and scored based on mortality. The results are indicated in the table entitled “Table ABC: Biological Results” (See Table Section).

The subject of data set [3] is Beet Armyworm (Spodoptera exigua). In words: Bioassay on Beet Armyworm (BAW), 128-well diet tray assay. As to conditions: 50 μg/cm^2 on artificial diet, second instar larvae, five to seven days, 25° C. The method, then: Bioassays on BAW were conducted using a 128-well diet tray assay. One to five second instar BAW larvae were placed in each well (3 mL) of the diet tray that had been previously filled with 1 mL of artificial diet to which 50 μg/cm^2 of the test molecule (dissolved in 50 μL of 90:10 acetone-water mixture) had been applied (to each of eight wells) and then allowed to dry. Trays were covered with a clear self-adhesive cover and held at 25° C., 14:10 light-dark for five to seven days. Percent mortality was recorded for the larvae in each well; activity in the eight wells was then averaged. The results are indicated in the table entitled “Table ABC: Biological Results” (See Table Section).
as §1

As for `O=C(CCC(F)(F)F)NNC(=O)c1ccc(/C(F)=C/C(c2cc(Br)c(Cl)c(Br)c2)C(F)(F)F)cc1C(F)(F)F` (centres unmarked) [F5, (Z)-4-(3-(3,5-dibromo-4-chlorophenyl)-1,4,4,4-tetrafluorobut-1-en-1-yl)-N′-(4,4,4-trifluorobutanoyl)-2-(trifluoromethyl)benzohydrazide], the “CL % Control (or Mortality) rating” value in data set [1] is on record as “A (50-100)”. Besides, the “YFM % Control (or Mortality) rating” value in data set [2] is on record as “A (80-100)”. In addition, the “BAW % Control (or Mortality) rating” value in data set [3] was “A (50-100)”.

As for `O=C(CCC(F)(F)F)NNC(=O)c1ccc(/C(F)=C/C(c2cc(Cl)cc(Cl)c2)C(F)(F)F)cc1C(F)(F)F` (centres unmarked) [F6, (Z)-4-(3-(3,5-Dichlorophenyl)-1,4,4,4-tetrafluorobut-1-en-1-yl)-N′-(4,4,4-trifluorobutanoyl)-2-(trifluoromethyl)benzohydrazide], the “CL % Control (or Mortality) rating” value in data set [1] was “A (50-100)”. The “YFM % Control (or Mortality) rating” value in data set [2] is “A (80-100)”. Besides, the “BAW % Control (or Mortality) rating” value in data set [3] is “A (50-100)”.

Regarding `O=C(CCC(F)(F)F)NNC(=O)c1ccc(/C(F)=C/C(c2ccc(Cl)c(Cl)c2)C(F)(F)F)cc1C(F)(F)F` (centres unmarked) [F7, (Z)-4-(3-(3,4-Dichlorophenyl)-1,4,4,4-tetrafluorobut-1-en-1-yl)-N′-(4,4,4-trifluorobutanoyl)-2-(trifluoromethyl)benzohydrazide], the “CL % Control (or Mortality) rating” value in data set [1] is “A (50-100)”. For the same compound, in data set [2], the “YFM % Control (or Mortality) rating” value is listed as “A (80-100)”. In data set [3], the “BAW % Control (or Mortality) rating” value was “A (50-100)”.

With `CN(NC(=O)c1ccc(/C(F)=C/C(c2cc(Cl)cc(Cl)c2)C(F)(F)F)cc1C(F)(F)F)C(=O)NCC(F)(F)F` (centres unmarked) [F8, (Z)-2-(4-(3-(3,5-Dichlorophenyl)-1,4,4,4-tetrafluorobut-1-en-1-yl)-2-(trifluoromethyl)benzoyl)-1-methyl-N-(2,2,2-trifluoroethyl) hydrazinecarboxamide], the “CL % Control (or Mortality) rating” value in data set [1] was “A (50-100)”. Also, the “YFM % Control (or Mortality) rating” value in data set [2] is listed as “A (80-100)”. In addition, the “BAW % Control (or Mortality) rating” value in data set [3] is recorded as “A (50-100)”.

Turning to `O=C(CCC(F)(F)F)NNC(=O)c1ccc(/C(F)=C/C(c2cc(Br)cc(Br)c2)C(F)(F)F)cc1C(F)(F)F` (centres unmarked) [F9, (Z)-4-(3-(3,5-Dibromophenyl)-1,4,4,4-tetrafluorobut-1-en-1-yl)-N′-(4,4,4-trifluorobutanoyl)-2-(trifluoromethyl)benzohydrazide], the “CL % Control (or Mortality) rating” value in data set [1] is “A (50-100)”. Besides, the “YFM % Control (or Mortality) rating” value in data set [2] was “A (80-100)”. Moreover, in data set [3], the “BAW % Control (or Mortality) rating” value is “A (50-100)”.

`O=C(CCC(F)(F)F)NNC(=O)c1ccc(/C(F)=C/C(c2cc(Cl)c(F)c(Cl)c2)C(F)(F)F)cc1C(F)(F)F` (centres unmarked) [F10, (Z)-4-(3-(3,5-Dichloro-4-fluorophenyl)-1,4,4,4-tetrafluorobut-1-en-1-yl)-N′-(4,4,4-trifluorobutanoyl)-2-(trifluoromethyl)benzohydrazide]: the “CL % Control (or Mortality) rating” value in data set [1] was “A (50-100)”. For the same compound, in data set [2], the “YFM % Control (or Mortality) rating” value is “A (80-100)”. Further, the “BAW % Control (or Mortality) rating” value in data set [3] is given as “A (50-100)”.

Regarding `CN(NC(=O)c1ccc(/C(F)=C/C(c2cc(Br)cc(Br)c2)C(F)(F)F)cc1C(F)(F)F)C(=O)NCC(F)(F)F` (centres unmarked) [F14, (Z)-2-(4-(3-(3,5-dibromophenyl)-1,4,4,4-tetrafluorobut-1-en-1-yl)-2-(trifluoromethyl)benzoyl)-1-methyl-N-(2,2,2-trifluoroethyl)hydrazinecarboxamide], in data set [1], the “CL % Control (or Mortality) rating” value is recorded as “A (50-100)”. The “YFM % Control (or Mortality) rating” value in data set [2] is “A (80-100)”. Further, the “BAW % Control (or Mortality) rating” value in data set [3] was “A (50-100)”.

With `CN(NC(=O)c1ccc(/C(F)=C/C(c2ccc(Cl)c(Cl)c2)C(F)(F)F)cc1C(F)(F)F)C(=O)NCC(F)(F)F` (centres unmarked) [F15], the “CL % Control (or Mortality) rating” value in data set [1] was “A (50-100)”. The “YFM % Control (or Mortality) rating” value in data set [2] is listed as “A (80-100)”. Besides, the “BAW % Control (or Mortality) rating” value in data set [3] was “A (50-100)”.

Take `Cc1cc(C(/C=C(\F)c2ccc(C(=O)NN(C)C(=O)NCC(F)(F)F)c(C(F)(F)F)c2)C(F)(F)F)cc(C)c1Cl` (centres unmarked) [F16, (Z)-2-(4-(3-(4-Chloro-3,5-dimethylphenyl)-1,4,4,4-tetrafluorobut-1-en-1-yl)-2-(trifluoromethyl)benzoyl)-1-methyl-N-(2,2,2-trifluoroethyl)hydrazinecarboxamide]: the “CL % Control (or Mortality) rating” value in data set [1] is listed as “A (50-100)”. In addition, the “YFM % Control (or Mortality) rating” value in data set [2] was “A (80-100)”. For the same compound, the “BAW % Control (or Mortality) rating” value in data set [3] is “A (50-100)”.

With `CN(NC(=O)c1ccc(/C(F)=C/C(c2cc(Cl)c(F)c(Cl)c2)C(F)(F)F)cc1C(F)(F)F)C(=O)NCC(F)(F)F` (centres unmarked) [F22, (Z)-2-(4-(3-(3,5-Dichloro-4-fluorophenyl)-1,4,4,4-tetrafluorobut-1-en-1-yl)-2-(trifluoromethyl)benzoyl)-1-methyl-N-(2,2,2-trifluoroethyl)hydrazinecarboxamide], the “CL % Control (or Mortality) rating” value in data set [1] is “A (50-100)”. Moreover, the “YFM % Control (or Mortality) rating” value in data set [2] is “A (80-100)”. Besides, the “BAW % Control (or Mortality) rating” value in data set [3] is given as “A (50-100)”.

With `CN(NC(=O)c1ccc(/C(F)=C/C(c2cc(Cl)cc(Br)c2)C(F)(F)F)cc1C(F)(F)F)C(=O)NCC(F)(F)F` (centres unmarked) [F25, (Z)-2-(4-(3-(3-Bromo-5-chlorophenyl)-1,4,4,4-tetrafluorobut-1-en-1-yl)-2-(trifluoromethyl)benzoyl)-1-methyl-N-(2,2,2-trifluoroethyl)hydrazinecarboxamide], the “CL % Control (or Mortality) rating” value in data set [1] is reported as “A (50-100)”. Further, the “YFM % Control (or Mortality) rating” value in data set [2] is “A (80-100)”. For the same compound, the “BAW % Control (or Mortality) rating” value in data set [3] was “A (50-100)”.

With `CN(NC(=O)c1ccc(/C(F)=C/C(c2ccc(Br)c(Br)c2)C(F)(F)F)cc1C(F)(F)F)C(=O)NCC(F)(F)F` (centres unmarked) [F26, (Z)-2-(4-(3-(3,4-Dibromophenyl)-1,4,4,4-tetrafluorobut-1-en-1-yl)-2-(trifluoromethyl)benzoyl)-1-methyl-N-(2,2,2-trifluoroethyl)hydrazinecarboxamide], in data set [1], the “CL % Control (or Mortality) rating” value is recorded as “B (More than 0-Less than 50)”. Besides, the “YFM % Control (or Mortality) rating” value in data set [2] is “A (80-100)”. Moreover, the “BAW % Control (or Mortality) rating” value in data set [3] was “B (More than 0-Less than 50)”.

Regarding `O=C(CCC(F)(F)F)NNC(=O)c1ccc(/C(F)=C/C(c2cc(Cl)c(Br)c(Cl)c2)C(F)(F)F)cc1C(F)(F)F` (centres unmarked) [F27, (Z)-4-(3-(4-Bromo-3,5-dichlorophenyl)-1,4,4,4-tetrafluorobut-1-en-1-yl)-N′-(4,4,4-trifluorobutanoyl)-2-(trifluoromethyl)benzohydrazide], in data set [1], the “CL % Control (or Mortality) rating” value was “A (50-100)”. The “YFM % Control (or Mortality) rating” value in data set [2] is on record as “A (80-100)”. In data set [3], the “BAW % Control (or Mortality) rating” value is on record as “A (50-100)”.

With `Cc1cc(C(/C=C(\F)c2ccc(C(=O)NN(C)C(=O)NCC(F)(F)F)c(C(F)(F)F)c2)C(F)(F)F)cc(Cl)c1Cl` (centres unmarked) [F30, (Z)-2-(4-(3-(3,4-Dichloro-5-methylphenyl)-1,4,4,4-tetrafluorobut-1-en-1-yl)-2-(trifluoromethyl)benzoyl)-1-methyl-N-(2,2,2-trifluoroethyl)hydrazine-1-carboxamide], the “CL % Control (or Mortality) rating” value in data set [1] is “A (50-100)”. In addition, in data set [2], the “YFM % Control (or Mortality) rating” value is listed as “D (No activity noticed in this bioassay)”. Besides, in data set [3], the “BAW % Control (or Mortality) rating” value is on record as “A (50-100)”.

For the compound `CN(NC(=O)c1ccc(/C(F)=C/C(c2cc(Cl)cc(C(F)(F)F)c2)C(F)(F)F)cc1C(F)(F)F)C(=O)NCC(F)(F)F` (centres unmarked) [PF9, (Z)-2-(4-(3-(3-Chloro-5-(trifluoromethyl)phenyl)-1,4,4,4-tetrafluorobut-1-en-1-yl)-2-(trifluoromethyl)benzoyl)-1-methyl-N-(2,2,2-trifluoroethyl)hydrazine-1-carboxamide], the “CL % Control (or Mortality) rating” value in data set [1] is “A (50-100)”. Also, the “BAW % Control (or Mortality) rating” value in data set [3] is “A (50-100)”.

The values above are taken from patent publication US9930892B2, “Molecules having pesticidal utility, and intermediates, compositions, and processes, related thereto” (Dow AgroSciences LLC, priority 2016, dated 2018).
